Reference: US20010051602A1, “Methods for increasing ApoE levels for the treatment of neurodegenerative disease” (priority 1997, published 2001)
Where “and” joins values, the source holds several entries; their conditions need not be identical. Identical values can stand only once.

Legend:
Tau protein = assay: clinical trial: Tau protein in the CSF; type: in vivo, human
Source text: (§1) Biological Markers: Additional biochemical markers included phenotyping of the patients ApoE and determining relative concentrations of tau protein, P-amyloid protein (1-42 and 1-40); and relative extent of lipid peroxidation.

cortical infarct = assay: Wistar rat middle cerebral artery occlusion stroke model; type: in vivo; conditions: rats dosed i.p. daily for ten days, 2 hour middle cerebral artery occlusion, 22 hours reperfusion
Experimental: In particular, the Wistar rat model may be used with modifications. Briefly, rats are dosed (i.p.) daily with probucol or a saline negative control for ten days. On the tenth day, animals are then subjected to a 2 hour reversible, middle cerebral artery occlusion. Laser-Doppler flowmetry is used to monitor the ischemic period and early reperfusion. […] We predict that the cortical infarct volumes (indicative of neuronal damage) will be less in animals treated with probucol as compared to untreated animals.

ApoE = ApoE in medium of rat primary type 1 astrocyte cultures exposed to probucol, immunoblot; type: cell-based
Experimental: Apo E concentration was assessed in the cell culture medium by immunoblot analysis using methods previously described (Poirier et al., Neuroscience, 55:81-90 (1993)). In the absence of probucol (EtOH control) very little ApoE is detected in the media (i.e., the extracellular compartment). […] We also observed that the amount of ApoE detected in the media at 48 hours was less than the amount of ApoE in the media after only 24 hours of incubation. This time-dependent response in ApoE levels may reflect the continued division and growth of cells.

β-amyloid protein (1-42) = assay: clinical trial: CSF β-amyloid (1-42); type: in vivo, human; conditions: individual AD patient
Source text: as §1
(§2) Tables 11 and 12 summarize the changes in total β-amyloid protein (1-40 and 1-42) at one month, as a percentage of the baseline values.

Alzheimer's disease [1] = assay: clinical trial: Clinical Impression of Change (CIBIC-Plus); type: in vivo, human; design: key to CIBIC Scores, 3 months, Average / CIBIC Scores, 6 months, Average: 7-point scale: 1 = very much improved, 4 = no change, 7 = very much worse
Experimental: Neuropsychological Assessment: The Clinical Impression of Change (CIBIC-Plus) and the Global Deterioration Scale (GDS) were recorded at 3 and 6 months. The Clinical Impression of Change (CIBIC-Plus) consists of the holistic impression by the clinician of whether the patient has shown any change since baseline as rated on a seven point sale (marked, moderate, mild improvement, no change, or marked, moderate, mild decline). The Global Deterioration Scale rates clinically identifiable stages of dementia. […] This test provides a holistic impression by the clinician of whether the patient has shown any change since baseline. The CIBIC is scored as a seven point scale, with a range from 1=“very much improved” to 4=“no change” to 7=“very much worse.” Changes in the CIBIC score have shown only weak correlation with changes in the ADAS-Cog and have been reported to be less sensitive to change than other measures. The FDA guidelines are widely interpreted as mandating the use of the CIBIC and this scale serves to measure the impact of treatment protocols on the quality of life for the patient.

β-amyloid protein (1-40) = assay: clinical trial: CSF total β-amyloid (1-40); type: in vivo, human
Source text: as §1, §2

Alzheimer's disease [2] = assay: clinical trial: Global Deterioration Scale; type: in vivo, human; design: Global Deterioration Scale, 3 months / Global Deterioration Scale, 6 months / Global Deterioration Scale, 3 months, Average / Global Deterioration Scale, 6 months, Average: scale not given here
Experimental: Neuropsychological Assessment: The Clinical Impression of Change (CIBIC-Plus) and the Global Deterioration Scale (GDS) were recorded at 3 and 6 months. The Clinical Impression of Change (CIBIC-Plus) consists of the holistic impression by the clinician of whether the patient has shown any change since baseline as rated on a seven point sale (marked, moderate, mild improvement, no change, or marked, moderate, mild decline). The Global Deterioration Scale rates clinically identifiable stages of dementia. […] The GDS test provides a description of the key features of AD progression. […] The GDS is calculated as the average of scores related to the performance in the following areas of attention and concentration, recent memory, past memory, orientation, and functioning and self care.

[3] = individual AD patient, 1 very much improved, 4 no change, 7 very much worse
[4] = average of patients, baseline average 4.7

`CC(C)(Sc1cc(C(C)(C)C)c(O)c(C(C)(C)C)c1)Sc1cc(C(C)(C)C)c(O)c(C(C)(C)C)c1` [probucol] was tested. Which “Tau concentration in the CSF, % change” value (Tau protein; 1 month relative to baseline, individual AD patient) did it give?
Its value is 93% and 109% and 97% and 92% and 102% and 113% and 94% and 131% and 99%.

What about the “Tau concentration in the CSF, 1 month” value (Tau protein; individual AD patient) of the same molecule?
The value was 188 and 1099 and 251 and 1070 and 458 and 1120 and 394 and 916 and 620.

And the “effect on Tau levels in the CSF, as a group” value (Tau protein; one month relative to baseline)?
Its value is “no effect”.

What about the “cortical infarct volumes compared to untreated animals” value (cortical infarct) of the same molecule?
The value was “less”.

And the “extracellular amount of ApoE” value (ApoE; 1 nM, 24 hours post dosing, versus EtOH control)?
The value was “dramatically increased”.

What about the “extracellular ApoE with increasing concentrations” value (ApoE; 100 nM and 10 uM versus 1 nM) of the same molecule?
Its value is “Further increases”.

And the “amount of ApoE in the media at 48 hours versus 24 hours” value (ApoE; 48 hours compared with 24 hours of incubation)?
Its value is “less”.

And the “[β amyloid 1-42] in the CSF, % change” value (β-amyloid protein (1-42); 1 month as a percentage of the baseline value)?
Its value is 242% and 142% (2×) and 56% and 195% and 624% and 2144%.

And the “[β amyloid 1-42] in the CSF, 1 month” value (β-amyloid protein (1-42); average of triplicate assays)?
The value was 2.48 and 3.92 and 0.76 and 1.78 and 2.15 and 0.31 and 1.06 and 1.29.

What about the “CIBIC-Plus evaluation for the group as a whole” value (Alzheimer's disease [1]; 6 month course of treatment) of the same molecule?
Its value is “slight deterioration”.

What about the “CIBIC Scores, 3 months, Average” value (Alzheimer's disease [1]; average of patients) of the same molecule?
The value was 3.9.

And the “CIBIC Scores, 6 months, Average” value (Alzheimer's disease [1]; average of patients)?
The value was 5.3.

What about the “CIBIC Scores, 3 months” value (Alzheimer's disease [1]; [3]) of the same molecule?
Its value is 3 (3×) and 5 (2×) and 4 (4×).

And the “CIBIC Scores, 6 months” value (Alzheimer's disease [1]; [3])?
Its value is 5 (4×) and 6 (3×) and 4.

And the “[β amyloid 1-40] in the CSF, % change” value (β-amyloid protein (1-40); 1 month as a percentage of the baseline value, individual AD patient)?
The value was 345% and 108% and 100% and 241% and 105% and 107% and 979% and 2157%.

And the “[β amyloid 1-40] in the CSF, 1 month” value (β-amyloid protein (1-40); individual AD patient, average of triplicate assays)?
Its value is 3.44 and 3.95 and 4.96 and 7.55 and 3.26 and 3.51 and 5.35 and 2.16.

What about the “levels of β-amyloid in the CSF” value (β-amyloid protein (1-40); one month of treatment, Alzheimer's patients, β-amyloid 1-40 and 1-42) of the same molecule?
Its value is “overall increase”.

What about the “patient symptoms on the Global Deterioration Scale” value (Alzheimer's disease [2]; at three and six months) of the same molecule?
Its value is “relative stabilization”.

What about the “Global Deterioration Scale, 3 months, Average” value (Alzheimer's disease [2]; [4]) of the same molecule?
Its value is 4.8.

And the “Global Deterioration Scale, 6 months, Average” value (Alzheimer's disease [2]; [4])?
The value was 5.3.

What about the “Global Deterioration Scale, 3 months” value (Alzheimer's disease [2]; individual AD patient) of the same molecule?
The value was 5 (2×) and 7 and 5.5 and 4.5 and 1.5 and 8 and 3.25 and 3.5.

And the “Global Deterioration Scale, 6 months” value (Alzheimer's disease [2]; individual AD patient)?
Its value is 6.5 and 7 and 5 and 6 and 1 and 8 and 3.5 and 5.5.
